In the supplement of paper PMC4932681:

Experiments:
BT-474 Tam1 [1] = experiment: drug sensitivity score (DSS) (DSS (dimensionless)); higher = more sensitive; extreme values may be limits of the assay; conditions: 4-OH-tamoxifen in medium 1 µM; 72 h
Experimental: (§1)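 FIMM FO2B library drugs were tested at 5 concentrations (10,000-fold range) for 72 h, with CellTiter-Glo viability normalised to DMSO and benzethonium chloride controls. The Drug Sensitivity Score (DSS) is computed from the fitted logistic dose-response curve (area-based; 0 = inactive). Resistant lines and the 'in 1µM tamoxifen' arms were tested in 1 µM 4-OH-tamoxifen.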

BT-474 Tam2 [2] = experiment: as above; conditions: 4-OH-tamoxifen in medium 1 µM; 72 h
Experimental: as §1

BT-474 [3] = experiment: as above; conditions: 72 h
Experimental: as §1

MCF-7 Tam1 [4] = experiment: as above; conditions: 4-OH-tamoxifen in medium 1 µM; 72 h
Experimental: as §1

MCF-7 [5] = experiment: as above; conditions: 72 h
Experimental: as §1

T-47D Tam1 = experiment: as above; conditions: 4-OH-tamoxifen in medium 1 µM; 72 h
Experimental: as §1

T-47D Tam2 = experiment: as above; conditions: 4-OH-tamoxifen in medium 1 µM; 72 h
Experimental: as §1

T-47D [6] = experiment: as above; conditions: 72 h
Experimental: as §1

ZR-75-1 Tam1 [7] = experiment: as above; conditions: 4-OH-tamoxifen in medium 1 µM; 72 h
Experimental: as §1

ZR-75-1 Tam2 [8] = experiment: as above; conditions: 4-OH-tamoxifen in medium 1 µM; 72 h
Experimental: as §1

ZR-75-1 [9] = experiment: as above; conditions: 72 h
Experimental: as §1

BT-474 [10] = experiment: relative IC50 (midpoint of fitted logistic curve, plateau may be below 50% inhibition; CellTiter-Glo viability); higher = less potent; conditions: 72 h
Experimental: (§2)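 FIMM FO2B library drugs were plated at 5 concentrations spanning a 10,000-fold range in 384-well plates. Cells were incubated for 72 h at 37 °C and viability was read by CellTiter-Glo, normalised to DMSO (0% inhibition) and 100 µM benzethonium chloride (100% inhibition). IC50 values come from logistic dose-response fits (Breeze pipeline). Tamoxifen-resistant lines and the 'in 1µM tamoxifen' parental arms were tested in medium with 1 µM 4-OH-tamoxifen.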

MCF-7 Tam1 [11] = experiment: as above; conditions: 4-OH-tamoxifen in medium 1 µM; 72 h
Experimental: as §2

T-47D [12] = experiment: as above; conditions: 72 h
Experimental: as §2

ZR-75-1 Tam1 [13] = experiment: as above; conditions: 4-OH-tamoxifen in medium 1 µM; 72 h
Experimental: as §2

ZR-75-1 Tam2 [14] = experiment: as above; conditions: 4-OH-tamoxifen in medium 1 µM; 72 h
Experimental: as §2

BT-474 Tam1 [15] = experiment: as above; conditions: 4-OH-tamoxifen in medium 1 µM; 72 h
Experimental: as §2

BT-474 Tam2 [16] = experiment: as above; conditions: 4-OH-tamoxifen in medium 1 µM; 72 h
Experimental: as §2

MCF-7 [17] = experiment: as above; conditions: 72 h
Experimental: as §2

ZR-75-1 [18] = experiment: as above; conditions: 72 h
Experimental: as §2

Structure (SMILES)	relative IC50 (BT-474 [10]; 4-OH-tamoxifen in medium 0 µM) [nM]	relative IC50 (BT-474 [10]; 4-OH-tamoxifen in medium 1 µM) [nM]	relative IC50 (MCF-7 Tam1 [11]) [nM]	relative IC50 (T-47D [12]; 4-OH-tamoxifen in medium 0 µM) [nM]	relative IC50 (BT-474 Tam1 [15]) [nM]	relative IC50 (BT-474 Tam2 [16]) [nM]	relative IC50 (MCF-7 [17]; 4-OH-tamoxifen in medium 0 µM) [nM]	relative IC50 (MCF-7 [17]; 4-OH-tamoxifen in medium 1 µM) [nM]	relative IC50 (T-47D [12]; 4-OH-tamoxifen in medium 1 µM) [nM]	drug sensitivity score (BT-474 Tam1 [1])	drug sensitivity score (BT-474 Tam2 [2])	drug sensitivity score (BT-474 [3]; 4-OH-tamoxifen in medium 0 µM)	drug sensitivity score (BT-474 [3]; 4-OH-tamoxifen in medium 1 µM)	drug sensitivity score (MCF-7 Tam1 [4])	drug sensitivity score (MCF-7 [5]; 4-OH-tamoxifen in medium 0 µM)	drug sensitivity score (MCF-7 [5]; 4-OH-tamoxifen in medium 1 µM)	drug sensitivity score (T-47D Tam1)	drug sensitivity score (T-47D Tam2)	drug sensitivity score (T-47D [6]; 4-OH-tamoxifen in medium 0 µM)	drug sensitivity score (T-47D [6]; 4-OH-tamoxifen in medium 1 µM)	drug sensitivity score (ZR-75-1 Tam1 [7])	drug sensitivity score (ZR-75-1 Tam2 [8])	drug sensitivity score (ZR-75-1 [9]; 4-OH-tamoxifen in medium 0 µM)	drug sensitivity score (ZR-75-1 [9]; 4-OH-tamoxifen in medium 1 µM)	relative IC50 (ZR-75-1 Tam1 [13]) [nM]	relative IC50 (ZR-75-1 Tam2 [14]) [nM]	relative IC50 (ZR-75-1 [18]; 4-OH-tamoxifen in medium 0 µM) [nM]	relative IC50 (ZR-75-1 [18]; 4-OH-tamoxifen in medium 1 µM) [nM]
O=C1NC(=O)[C@@H](c2cn3c4c(cccc24)CCC3)[C@@H]1c1c[nH]c2ccccc12 [Tivatinib (ARQ 197)]	401	223	> 1000	364	–	–	–	–	–	0.142	0	1.2	3.08	0	3.81	0.0182	0.827	0.839	1.88	0	0	0	0.524	0	> 1000	> 1000	–	–
C1CN1c1nc(N2CC2)nc(N2CC2)n1 [Triethylenemelamine]	> 10000	> 10000	> 10000	> 10000	> 10000	> 10000	> 10000	> 10000	> 10000	0	0	0	0	0	0	0	0.0501	0.12	0	0	0	0	0	0	> 10000	> 10000	> 10000	> 10000
Nc1nc(Cl)nc2c1ncn2[C@H]1C[C@H](O)[C@@H](CO)O1 [Cladribine]	> 1000	> 1000	> 1000	> 1000	> 1000	> 1000	> 1000	> 1000	> 1000	0	0	0	0	0	0	0	0.899	0	0	0	0.538	1.16	0.0944	0.126	–	–	–	–
NC(=O)Nc1cc(-c2cccc(F)c2)sc1C(=O)N[C@H]1CCCNC1 [AZD7762]	> 1000	> 1000	> 1000	> 1000	> 1000	> 1000	129	> 1000	–	0	0	0	0	0	3.41	0	3	2.77	0	2	0	0	0	0	> 1000	> 1000	–	> 1000
CN(C)C/C=C/C(=O)Nc1cc2c(Nc3ccc(F)c(Cl)c3)ncnc2cc1O[C@H]1CCOC1 [Afatinib (BIBW2992, Tovok)]	25.7	15.8	> 1000	> 1000	12.4	13.1	> 1000	–	> 1000	21.9	21.8	15.3	20.5	0	0	0.328	1.83	0.583	0	0	0	0	0	0	> 1000	> 1000	> 1000	> 1000
COc1cc2/c(=N/c3ccc(Br)cc3F)nc[nH]c2cc1OCC1CCN(C)CC1 [Vandetanib  (ZD6474, Zactima)]	> 1000	> 1000	> 1000	> 1000	–	–	–	–	> 1000	0.381	0.605	0	0	0	0.65	0.193	0.009	1.6	0	0	0	0	0	0	> 1000	> 1000	> 1000	> 1000
Cc1ccc(-n2nc(C(C)(C)C)cc2NC(=O)Nc2ccc(OCCN3CCOCC3)c3ccccc23)cc1 [Doramapimod (BIRB 796)]	> 10000	–	> 10000	–	–	> 10000	–	–	> 10000	1.04	0	0	0.211	0	0.173	0.239	0.342	1.06	0	0	0	0	0	0	> 10000	> 10000	> 10000	> 10000
Cc1cc(C(C)Nc2ccccc2)c2nc(N3CCOCC3)cc(=O)n2c1 (stereo not drawn) [TGX-221]	> 10000	–	> 10000	> 10000	–	4070	–	–	–	1.23	1.6	0	0.562	0	1.97	2.11	0.102	0.389	0	0.16	9.5	14.3	13.2	11	193	104	74.3	74.8
Cn1c(=O)c(F)c(Nc2ccc(I)cc2F)c2c(=O)n(C[C@@H](O)CO)cnc21 [TAK-733]	> 1000	–	> 1000	> 1000	–	–	–	–	> 1000	0	2.4	0	2.56	0	1.63	5.38	3.14	0.474	0	0	0	0	0	0	> 1000	> 1000	> 1000	> 1000
C=CC(=O)N1CCC[C@@H](n2nc(-c3ccc(Oc4ccccc4)cc3)c3c(N)ncnc32)C1	13.4	5.56	> 1000	> 1000	2.12	3.4	> 1000	–	> 1000	31.9	29	18.1	26.2	0	0	2.36	2.76	0.549	0	0	0	0	0	0	> 1000	> 1000	> 1000	> 1000

The next lines start with results.

relative IC50 (BT-474 [10]; 4-OH-tamoxifen in medium 0 µM) [nM]	relative IC50 (BT-474 [10]; 4-OH-tamoxifen in medium 1 µM) [nM]	relative IC50 (MCF-7 Tam1 [11]) [nM]	relative IC50 (T-47D [12]; 4-OH-tamoxifen in medium 0 µM) [nM]	relative IC50 (BT-474 Tam1 [15]) [nM]	relative IC50 (BT-474 Tam2 [16]) [nM]	relative IC50 (MCF-7 [17]; 4-OH-tamoxifen in medium 0 µM) [nM]	relative IC50 (MCF-7 [17]; 4-OH-tamoxifen in medium 1 µM) [nM]	relative IC50 (T-47D [12]; 4-OH-tamoxifen in medium 1 µM) [nM]	Structure (SMILES)	drug sensitivity score (BT-474 Tam1 [1])	drug sensitivity score (BT-474 Tam2 [2])	drug sensitivity score (BT-474 [3]; 4-OH-tamoxifen in medium 0 µM)	drug sensitivity score (BT-474 [3]; 4-OH-tamoxifen in medium 1 µM)	drug sensitivity score (MCF-7 Tam1 [4])	drug sensitivity score (MCF-7 [5]; 4-OH-tamoxifen in medium 0 µM)	drug sensitivity score (MCF-7 [5]; 4-OH-tamoxifen in medium 1 µM)	drug sensitivity score (T-47D Tam1)	drug sensitivity score (T-47D Tam2)	drug sensitivity score (T-47D [6]; 4-OH-tamoxifen in medium 0 µM)	drug sensitivity score (T-47D [6]; 4-OH-tamoxifen in medium 1 µM)	drug sensitivity score (ZR-75-1 Tam1 [7])	drug sensitivity score (ZR-75-1 Tam2 [8])	drug sensitivity score (ZR-75-1 [9]; 4-OH-tamoxifen in medium 0 µM)	drug sensitivity score (ZR-75-1 [9]; 4-OH-tamoxifen in medium 1 µM)	relative IC50 (ZR-75-1 Tam1 [13]) [nM]	relative IC50 (ZR-75-1 Tam2 [14]) [nM]	relative IC50 (ZR-75-1 [18]; 4-OH-tamoxifen in medium 0 µM) [nM]	relative IC50 (ZR-75-1 [18]; 4-OH-tamoxifen in medium 1 µM) [nM]
> 10000	> 10000	> 10000	> 10000	–	–	> 10000	–	> 10000	CC(C)(C)NC(=O)[C@H]1CC[C@H]2[C@@H]3CC[C@H]4NC(=O)C=C[C@]4(C)[C@H]3CC[C@]12C [Finasteride]	1.69	0.793	0	0	0	0	0.553	0.762	0.298	0	0	0	0	0	0	> 10000	> 10000	> 10000	> 10000
113	82.4	> 1000	> 1000	89.4	65.9	> 1000	–	> 1000	CS(=O)(=O)CCNCc1ccc(-c2ccc3ncnc(Nc4ccc(OCc5cccc(F)c5)c(Cl)c4)c3c2)o1 [Lapatinib]	11.6	12.8	8.29	12.2	0	0	1.43	4	0.567	0	0	0	0	0	0	> 1000	> 1000	> 1000	> 1000
> 10000	> 10000	> 10000	> 10000	> 10000	> 10000	> 10000	–	> 10000	CC1=C(/C=C/C(C)=C/C=C/C(C)=C/C(=O)O)C(C)(C)CCC1 [Tretinoin]	0	0	0	0	0	0	0.52	0.561	0.122	0	0	0	0	0	0	> 10000	> 10000	> 10000	> 10000
> 10000	–	> 10000	–	> 10000	–	> 10000	–	–	CC(C)Cn1cnc2c(N)nc3ccccc3c21 [Imiquimod]	0	0	0	0.268	0	0	0.399	1.59	0.195	0.182	0	0	0	0	0	> 10000	> 10000	> 10000	> 10000
–	–	> 10000	–	> 10000	–	2960	> 10000	> 10000	Nc1ncn([C@@H]2O[C@H](CO)[C@@H](O)[C@H]2O)c(=O)n1 [Azacitidine]	0	0.198	0.0007	0.194	0	1.55	0	0.8	0.867	0.134	0	0.0216	0	0.0144	0	–	> 10000	–	> 10000
2500	2750	> 10000	–	–	–	–	–	> 10000	COc1cc2c(cc1O)CC[C@@H]1[C@@H]2CC[C@]2(C)[C@@H](O)CC[C@@H]12 [2-methoxyestradiol  (Panzem)]	0.83	0.943	3.19	3.93	0	3.15	0.767	0.761	1.01	0.97	0	0	0	1.28	0	> 10000	> 10000	4130	> 10000
